Results taken from PubChem BioAssay (NCI).
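Following 48 hours of exposure in 96-well plates, responses at five concentrations were used to interpolate endpoints linearly. The concentration for 50% growth inhibition is given as GI50. TGI: concentration producing complete growth inhibition.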

Experiments:
Experiment in all cases: NCI tumour cell line growth inhibition, 48 h
[1] = system: 786-0 renal
[2] = system: A498 renal
[3] = system: A549 NSCLC
[4] = system: ACHN renal
[5] = system: BT-549 breast
[6] = system: CAKI-1 renal
[7] = system: CCRF-CEM leukemia
[8] = system: COLO 205 colon
[9] = system: DU-145 prostate
[10] = system: EKVX NSCLC
[11] = system: HCC-2998 colon
[12] = system: HCT-116 colon
[13] = system: HCT-15 colon
[14] = system: HL-60(TB) leukemia
[15] = system: HOP-62 NSCLC
[16] = system: HOP-92 NSCLC
[17] = system: HS 578T breast
[18] = system: HT29 colon
[19] = system: IGROV1 ovarian
[20] = system: K-562 leukemia
[21] = system: KM12 colon
[22] = system: LOX IMVI melanoma
[23] = system: MALME-3M melanoma
[24] = system: MCF7 breast
[25] = system: MDA-MB-231 breast
[26] = system: MDA-MB-435
[27] = system: MOLT-4 leukemia
[28] = system: NCI-H226 lung
[29] = system: NCI-H23 lung

`CC[C@@H](C(=O)[C@H](C)[C@H](O)[C@@H](C)[C@H]1O[C@H]([C@@H](CC)C(=O)N(CC)CC)CC[C@H]1C)C1O[C@]2(C=C[C@@H](O)[C@]3(CC[C@@](C)([C@H]4CC[C@](O)(CC)[C@H](C)O4)O3)O2)[C@H](C)C[C@@H]1C` (some centres not stated) was tested, and the GI50 [1] was 3.55 µM, the TGI [1] was 17.5 µM and the GI50 [2] was 2.44 µM. The TGI [2] was 8.21 µM, the GI50 [3] was 2.95 µM and the TGI [3] was 17.6 µM. For the same compound, the GI50 [4] was 2.93 µM, the TGI [4] was 10 µM and the GI50 [5] was 3.33 µM. It also gave a TGI [5] of 14.8 µM, a GI50 [6] of 2.12 µM and a TGI [6] of 8.06 µM. The GI50 [7] was 3.39 µM, the TGI [7] was 13.4 µM and the GI50 [8] was 2.5 µM. The TGI [8] was 5.82 µM, the GI50 [9] was 3.91 µM and the TGI [9] was 14.9 µM. It also gave a GI50 [10] of 2.58 µM, a TGI [10] of 11.4 µM and a GI50 [11] of 2.97 µM. It also gave a TGI [11] of 10.7 µM, a GI50 [12] of 2.9 µM and a TGI [12] of 12.5 µM. The GI50 [13] was 2.64 µM, the TGI [13] was 8.28 µM and the GI50 [14] was 2.24 µM. For the same compound, the TGI [14] was 5.13 µM, the GI50 [15] was 4.33 µM and the TGI [15] was 19.5 µM. The GI50 [16] was 1.45 µM, the TGI [16] was 5.43 µM and the GI50 [17] was 2.9 µM. The TGI [17] was 13.8 µM, the GI50 [18] was 3.34 µM and the TGI [18] was 15.6 µM. It also gave a GI50 [19] of 2.73 µM, a TGI [19] of 10.8 µM and a GI50 [20] of 3.12 µM. For the same compound, the TGI [20] was 19.4 µM, the GI50 [21] was 2.53 µM and the TGI [21] was 7.03 µM. The GI50 [22] was 1.83 µM, the TGI [22] was 4.29 µM and the GI50 [23] was 2.21 µM. The TGI [23] was 5.7 µM, the GI50 [24] was 2.61 µM and the TGI [24] was 10.1 µM. For the same compound, the GI50 [25] was 1.86 µM, the TGI [25] was 4.29 µM and the GI50 [26] was 2.81 µM. The TGI [26] was 9.8 µM, the GI50 [27] was 2.55 µM and the TGI [27] was 7.05 µM. The GI50 [28] was 2.69 µM, the TGI [28] was 10.9 µM and the GI50 [29] was 2.81 µM.
